Earlier results in US5665379A, “Lipid particle forming matrix, preparation and use thereof” (priority 1990, dated 1997).

CCCCCCCCCCCCCCCC(=O)OC(CC(=O)[O-])C[N+](C)(C)C (stereo not shown) [palmitoylcarnitine]
Absorption enhancement in the gut (in words): acts as an absorption enhancer
